Literature values in article PMC10377753, “Pharmacokinetic and pharmacodynamic properties of polymyxin B in Escherichia coli and Klebsiella pneumoniae murine infection models” (Journal of Antimicrobial Chemotherapy, 2023).

System: plasma proteins
Conditions: mouse, spiked pooled plasma, ultracentrifugation; cited from earlier work
Source text: Protein binding of polymyxin B is known to be high. However, a difference was found between the current study (unbound fraction 20%) compared with previous studies (8.6% for polymyxin B,[8] 8.4% for colistin[5]), which affects the PTA. In the present study, ultrafiltration was used for determining the unbound fraction, whilst ultracentrifugation was used in the other studies. With the ultrafiltration method, correction for the NSB to the ultrafiltration membranes was needed. In addition, differences in mouse plasma used for determination of polymyxin B protein binding may (partly) explain the ...

## colistin
  Unbound fraction: 8.4%
